Results published in US7964613B2 (Asahi Kasei Pharma Corporation, priority 2007, dated 2011).

How the values were obtained:
human ROCK1 = biological target: T1, human ROCK1 (Homo sapiens, UniProt Q13464); test: Measurement of Rho kinase inhibitory activity (ELISA of MBS phosphorylation); type: biochemical; conditions: human ROCK1, MBS substrate, 100 μM ATP, 30° C. for 10 minutes
T1 construct: His tag (N); host or cells: insect cells (Sf9)
Method: In this test, human ROCK1 was used as Rho kinase, MBS (myosin binding subunit, subunit constituting myosin phosphatase) was used as the substrate of Rho kinase, and an anti-phosphorylated MBS antibody was used for detection of phosphorylation. The activity for inhibiting Rho kinase was determined by measuring phosphorylation of MBS by the Rho kinase by ELISA in the presence of an appropriately diluted test compound. As the Rho kinase used, a recombinant protein (N-terminal His-tagged recombinant human ROCK1 residues (1Met-[…])) was used, which was produced in insect cells (Sf9) using a sequence (1-727), of which activity was confirmed in the paper of Ishizaki et al. (Ishizaki, T. et al., FEBS Letters, 404, pp 118-124, 1997), based on the sequence of human ROCK1 (p 160 ROCK) described in the report of Ishizaki et al. (Ishizaki, T. et al., EMBO J., 15, pp 1885-1893, 1996). Further, as the MBS protein and anti-phosphorylated MBS antibody, those prepared according to the method described in the paper of Ito et al. (Ito, K et al., J. Physiol., 546, pp 823-836, 2003) were used.
A solution of MBS (Asahi Kasei Pharma, lot No, 040814n7-10) diluted with PBS to an appropriate concentration was added to an ELISA plate (Maxisorp, Nunc), and left, stand overnight at 4° C., and then the wells were washed twice with a washing solution (WB, washing buffer, 0.1% Tween 20/PBS). To the wells were added 1% bovine serum albumin (Sigma)/PBS, and left for 1 to 3 hours, and then the wells were washed 5 times with WB to prepare a substrate-immobilized plate. Onto this plate, a reaction mixture (5 mM MgSO4/0.1 M NaCl/20 mM HEPES (pH 7.5)/100 μM ATP/5 mM DTT), a test compound, and appropriately diluted human ROCK1 (Asahi Kasei Pharma, lot No, 030126.120-22) were added, and then reacted at 30° C. for 10 minutes. Then, 0.2 M EDTA (pH 7.5) was added to terminate the reaction, and the wells were washed 5 times with WB. A rabbit anti-phosphorylated MBS antibody solution (Asahi Kasei Pharma, lot No, 122676431) diluted 10,000 times with WB containing 1% bovine serum albumin was added to the wells, and after the reaction for 1 hour, the wells were washed 5 times with WB. Goat anti-rabbit IgG-HRP (Zymed) diluted 1,000 times with WB containing 1% bovine serum albumin was added to the wells as the secondary detection antibody and the mixture was reacted for 1 hour, and then the wells were washed 5 times with WB. An OPD (o-phenylenediamine) solution (1 mg/ml OPD, Sigma), 5.1 g/l of citric acid monohydrate, and 18.4 g/l of Na2HPO4.12H2O were added to the wells to develop color, […] was added 5 minutes later to terminate the color development, and absorbance was measured at 490 nm.
The inhibition ratio was calculated as follows. Inhibition ratio(%)=[…]
Further, the inhibition ratio was calculated with changing the concentration of the test compound, and a compound concentration providing an inhibition ratio of 50% was obtained as IC50.

[1] = test system: rabbit normal intraocular pressure; test: Intraocular pressure reducing action; type: in vivo, Japanese white rabbit; conditions: Oryctolagus cuniculus, topical; 3 mM aqueous solution, 50 μl to the left eye; max IOP reduction (2, 4, 6 hours) / value immediately before administration; read-out: intraocular pressure reducing degree
How it was run: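 Japanese white rabbits (~2 kg) under topical anaesthesia received 50 μl of a 3 mM aqueous test solution in the left eye, right eye untreated. IOP read by tonometer before and at 2, 4, 6 h; maximal left–right difference divided by pre-dose IOP ×100 gives % reduction.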

T1 sequence (Q13464 1-727): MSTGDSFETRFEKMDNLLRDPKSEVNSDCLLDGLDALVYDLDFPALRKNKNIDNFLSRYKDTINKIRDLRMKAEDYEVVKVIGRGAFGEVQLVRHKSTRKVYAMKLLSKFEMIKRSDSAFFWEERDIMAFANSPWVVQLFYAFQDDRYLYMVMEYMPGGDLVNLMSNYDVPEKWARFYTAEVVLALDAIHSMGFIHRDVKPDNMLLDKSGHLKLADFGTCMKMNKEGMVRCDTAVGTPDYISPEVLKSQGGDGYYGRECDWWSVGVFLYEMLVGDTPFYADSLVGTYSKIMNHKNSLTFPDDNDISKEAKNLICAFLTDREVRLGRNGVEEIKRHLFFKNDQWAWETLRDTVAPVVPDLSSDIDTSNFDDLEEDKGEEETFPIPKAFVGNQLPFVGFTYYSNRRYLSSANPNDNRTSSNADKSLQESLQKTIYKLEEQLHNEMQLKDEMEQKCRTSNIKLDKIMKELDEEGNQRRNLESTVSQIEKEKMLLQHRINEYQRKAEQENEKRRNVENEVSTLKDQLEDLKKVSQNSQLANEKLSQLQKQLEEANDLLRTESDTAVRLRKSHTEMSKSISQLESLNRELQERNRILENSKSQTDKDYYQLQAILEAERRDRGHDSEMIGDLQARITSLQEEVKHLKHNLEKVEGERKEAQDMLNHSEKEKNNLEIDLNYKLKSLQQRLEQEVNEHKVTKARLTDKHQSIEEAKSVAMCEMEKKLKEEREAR

| Structure (SMILES) | IC50 (human ROCK1) | inhibition in vivo at 3000 µM [1] |
| --- | --- | --- |
| O=C(N[C@H]1CCN(S(=O)(=O)c2cccc3cncc(Cl)c23)C1)C1COCCO1 (stereo partly drawn) [Example 109, N—[(S)-1-(4-Chloro-5-isoquinolinesulfonyl)pyrrolidin-3-yl]-1,4-dioxane-2-carboxamide] | 1000 to 3000 nM | ≥ 20% |
| O=C(CCN1CCNCC1)N[C@H]1CCN(S(=O)(=O)c2cccc3cncc(Cl)c23)C1 [Example 83, (S)-3-[3-(piperazin-1-yl)propionyl]amino-1-(4-chloro-5-isoquinolinesulfonyl)pyrrolidine] | 1000 to 3000 nM | 10 to 20% |
| CN[C@@H]1CCN(S(=O)(=O)c2cccc3cncc(C)c23)C1 [Example 27, (R)-3-(Methylamino)-1-(4-methyl-5-isoquinolinesulfonyl)pyrrolidine] | < 1000 nM | 5 to 10% |
| NCCN[C@H]1CCN(S(=O)(=O)c2cccc3cncc(Br)c23)C1 [Example 1-31] | < 1000 nM | 10 to 20% |
| Cc1cncc2cccc(S(=O)(=O)N3CC[C@H](NCc4ccccc4)C3)c12 [Example 8-6] | < 1000 nM | – |
| COc1ccc(CN[C@H]2CCN(S(=O)(=O)c3cccc4cncc(Br)c34)C2)cc1 [Example 1-7] | < 1000 nM | – |
| O=S(=O)(c1cccc2cncc(Br)c12)N1CC[C@H](NCc2ccc3c(c2)OCCO3)C1 [Example 1-38] | < 1000 nM | – |
| C=Cc1cncc2cccc(S(=O)(=O)N3CC[C@H](N)C3)c12 [Example 9-1, (S)-3-Amino-1-(4-vinyl-5-isoquinolinesulfonyl)pyrrolidine] | < 1000 nM | ≥ 20% |
| CC(N)C1CCN(S(=O)(=O)c2cccc3cncc(Cl)c23)CC1 (centres unmarked) [Example 53] | < 1000 nM | 10 to 20% |
| Cc1cncc2cccc(S(=O)(=O)N3CC[C@H](NC4CCC4)C3)c12 [Example 8-28] | < 1000 nM | 5 to 10% |
| Cc1cncc2cccc(S(=O)(=O)N3CC[C@H](NC4CCCCC4)C3)c12 [Example 8-30] | 1000 to 3000 nM | 5 to 10% |
| Cc1cncc2cccc(S(=O)(=O)N3CC[C@H](NC4CCOCC4)C3)c12 [Example 8-31] | 1000 to 3000 nM | 10 to 20% |
| O=S(=O)(c1cccc2cncc(Br)c12)N1CC[C@H](NCc2ccccc2)C1 [Example 1-6] | < 1000 nM | – |
| COc1cncc2cccc(S(=O)(=O)N3CC[C@H](N)C3)c12 [Example 15-1, (S)-3-Amino-1-(4-methoxy-5-isoquinolinesulfonyl)pyrrolidine] | 1000 to 3000 nM | 5 to 10% |
| NCC1CCN(S(=O)(=O)c2cccc3cncc(Cl)c23)CC1 [Example 52, 4-(Aminomethyl)-1-(4-chloro-5-isoquinolinesulfonyl)piperidine] | < 1000 nM | – |
| Cc1cncc2cccc(S(=O)(=O)N3CC[C@H](NCc4cccn4C)C3)c12 [Example 8-21] | < 1000 nM | 10 to 20% |

| Structure (SMILES) | IC50 (human ROCK1) | inhibition in vivo at 3000 µM [1] |
| --- | --- | --- |
| Cc1cncc2cccc(S(=O)(=O)N3CC[C@H](NCc4ccc([N+](=O)[O-])cc4)C3)c12 [Example 8-9] | 1000 to 3000 nM | – |
| CCCN[C@H]1CCN(S(=O)(=O)c2cccc3cncc(C)c23)C1 [Example 8-5] | < 1000 nM | – |
| O=S(=O)(c1cccc2cncc(Br)c12)N1CC[C@H](NC2CCC(O)CC2)C1 (some centres unmarked) [Example 1-33] | 1000 to 3000 nM | – |
| Cc1cncc2cccc(S(=O)(=O)N3CC[C@H](NCC#N)C3)c12 [Example 8-73] | 1000 to 3000 nM | – |
| C=CCN[C@H]1CCN(S(=O)(=O)c2cccc3cncc(C)c23)C1 [Example 8-34] | < 1000 nM | 5 to 10% |
| Cc1cncc2cccc(S(=O)(=O)N3CC(N)C3)c12 [Example 26, 3-Amino-1-(4-methyl-5-isoquinolinesulfonyl)azetidine] | < 1000 nM | 5 to 10% |
| O=S(=O)(c1cccc2cncc(Br)c12)N1CC[C@H](NCc2ccc(O)cc2)C1 [Example 1-11] | < 1000 nM | – |
| COc1ccc(CN[C@H]2CCN(S(=O)(=O)c3cccc4cncc(C)c34)C2)cc1 [Example 8-7] | < 1000 nM | – |
| Cc1ccc(CN[C@H]2CCN(S(=O)(=O)c3cccc4cncc(C)c34)C2)o1 [Example 8-16] | 1000 to 3000 nM | – |
| C#Cc1cncc2cccc(S(=O)(=O)N3CC[C@H](NCc4ccco4)C3)c12 [Example 10-14] | 1000 to 3000 nM | – |
| NCC1CCN(S(=O)(=O)c2cccc3cncc(Cl)c23)C1 (centres unmarked) [Example 44, 3-(Aminomethyl)-1-(4-chloro-5-isoquinolinesulfonyl)pyrrolidine] | < 1000 nM | – |
| O=S(=O)(c1cccc2cncc(Br)c12)N1CC[C@H](NCCc2ccccc2)C1 [Example 1-13] | < 1000 nM | – |
| C#Cc1cncc2cccc(S(=O)(=O)N3CC[C@H](NC4CCOCC4)C3)c12 [Example 10-31] | 1000 to 3000 nM | – |
| Cc1cncc2cccc(S(=O)(=O)N3CC[C@H](NCc4ccc5c(c4)OCO5)C3)c12 [Example 8-8] | < 1000 nM | – |
| Cc1ccc(CN[C@H]2CCN(S(=O)(=O)c3cccc4cncc(C)c34)C2)s1 [Example 8-18] | 1000 to 3000 nM | – |

Further lines, with some results ahead:

| IC50 (human ROCK1) | Structure (SMILES) | inhibition in vivo at 3000 µM [1] |
| --- | --- | --- |
| 1000 to 3000 nM | Cc1ccc(CN[C@H]2CCN(S(=O)(=O)c3cccc4cncc(F)c34)C2)o1 [Example 18-16] | – |
| < 1000 nM | O=S(=O)(c1cccc2cncc(F)c12)N1CC[C@H](NCc2ccc3c(c2)OCO3)C1 [Example 18-8] | – |
| 1000 to 3000 nM | NCCCN[C@H]1CCN(S(=O)(=O)c2cccc3cncc(Cl)c23)C1 [Example 62-1, (S)-3-(3-Aminopropyl)amino-1-(4-chloro-5-isoquinolinesulfonyl)pyrrolidine] | 10 to 20% |
| < 1000 nM | CCc1cncc2cccc(S(=O)(=O)N3CC[C@H](N)C3)c12 [Example 23-1, (S)-3-Amino-1-(4-ethyl-5-isoquinolinesulfonyl)pyrrolidine] | 10 to 20% |
| < 1000 nM | Cc1cncc2cccc(S(=O)(=O)N3CC[C@H](NCCCNC(=O)Nc4ccccc4)C3)c12 [Example 65-1, (S)—N-[3-[1-(4-Methyl-5-isoquinolinesulfonyl)pyrrolidin-3-yl]aminopropyl],N′-phenylurea] | 10 to 20% |
| 1000 to 3000 nM | NCC(=O)N[C@H]1CCN(S(=O)(=O)c2cccc3cncc(Cl)c23)C1 [Example 58-1, (S)-3-(2-Aminoacetyl)amino-1-(4-chloro-5-isoquinolinesulfonyl)pyrrolidine] | ≥ 20% |
| 1000 to 3000 nM | N[C@H]1CCN(S(=O)(=O)c2cccc3cncc(C(F)(F)F)c23)C1 [Example 47-1, (S)-3-Amino-1-(4-trifluoromethyl-5-isoquinolinesulfonyl)pyrrolidine] | – |
| 1000 to 3000 nM | O=S(=O)(c1cccc2cncc(Cl)c12)N1CC[C@H](NCc2cccs2)C1 [Example 19-17] | – |
| 1000 to 3000 nM | Cn1cccc1CN[C@H]1CCN(S(=O)(=O)c2cccc3cncc(Cl)c23)C1 [Example 19-21] | – |
| 1000 to 3000 nM | O=S(=O)(c1cccc2cncc(Cl)c12)N1CC[C@H](NCc2ccco2)C1 [Example 19-14] | – |
| 1000 to 3000 nM | CS(=O)(=O)N[C@H]1CCN(S(=O)(=O)c2cccc3cncc(Cl)c23)C1 [Example 50-1, (S)-3-(Methanesulfonylamino)-1-(4-chloro-5-isoquinolinesulfonyl)pyrrolidine] | – |
| < 1000 nM | Nc1ncc(Br)c2c(S(=O)(=O)N3CC[C@H](N)C3)cccc12 [Example 41-1, (S)-3-Amino-1-(1-amino-4-bromo-5-isoquinolinesulfonyl)pyrrolidine] | – |
| 1000 to 3000 nM | CCN[C@H]1CCN(S(=O)(=O)c2cccc3cncc(Cl)c23)C1 [Example 19-4] | – |
| < 1000 nM | O=S(=O)(c1cccc2cncc(Cl)c12)N1CC[C@H](NCc2ccc3c(c2)OCO3)C1 [Example 19-8] | – |
